Test results published in the NIST ThermoML archive (doi:10.1016/j.fluid.2005.02.015).
Numbers after ± are expanded uncertainties.

How the values were obtained:
[1] = xn = mol fraction of the nth substance listed; conditions: 298.15 K, 101.33 kPa, Liquid
[2] = Liquid; for mass density: 298.15 K, 101.33 kPa
[3] = refractive index (Na D-line) (dimensionless); conditions: 293.15 K; 101.33 kPa; Liquid; Standard Abbe refractometry

Question: Which mass density ([1]; x2 = 0) does the source give for CC(C)OC(=O)[C@H](C)O [isopropyl (S)-2-hydroxypropionate] + CC(C)O here?
Answer: 986.942 ± 0.2 kg/m3

Question: What about the mass density ([1]; x2 = 0.087) of the same compound?
Answer: 976.815 ± 0.22 kg/m3

Question: What about the mass density ([1]; x2 = 0.197) of the same compound?
Answer: 962.69 ± 0.25 kg/m3

Question: What about the mass density ([1]; x2 = 0.281) of the same compound?
Answer: 950.807 ± 0.27 kg/m3

Question: What about the mass density ([1]; x2 = 0.3554) of the same compound?
Answer: 939.404 ± 0.3 kg/m3

Question: What about the mass density ([1]; x2 = 0.542) of the same compound?
Answer: 906.498 ± 0.37 kg/m3

Question: What about the mass density ([1]; x2 = 0.5652) of the same compound?
Answer: 901.903 ± 0.37 kg/m3

Question: What about the mass density ([1]; x2 = 0.6921) of the same compound?
Answer: 874.425 ± 0.42 kg/m3

Question: And the mass density ([1]; x2 = 0.7733)?
Answer: 854.447 ± 0.46 kg/m3

Question: What about the mass density ([1]; x2 = 0.8365) of the same compound?
Answer: 837.361 ± 0.49 kg/m3

Question: What about the mass density ([1]; x2 = 0.8675) of the same compound?
Answer: 828.428 ± 0.51 kg/m3

Question: And the mass density ([1]; x2 = 0.9249)?
Answer: 810.801 ± 0.55 kg/m3

Question: What about the mass density ([1]; x2 = 0.9516) of the same compound?
Answer: 802.104 ± 0.56 kg/m3

Question: Which results are given for CC(C)OC(=O)[C@H](C)O [isopropyl (S)-2-hydroxypropionate]?
Answer: mass density [2]: 986.942 ± 0.2 kg/m3; vapor or sublimation pressure ([2]; 355 K): 7.424 ± 0.34 kPa; vapor or sublimation pressure ([2]; 360 K): 9.156 ± 0.35 kPa; vapor or sublimation pressure ([2]; 365 K): 11.22 ± 0.36 kPa; vapor or sublimation pressure ([2]; 370 K): 13.68 ± 0.36 kPa; vapor or sublimation pressure ([2]; 375 K): 16.58 ± 0.37 kPa; vapor or sublimation pressure ([2]; 380 K): 20 ± 0.38 kPa; vapor or sublimation pressure ([2]; 385 K): 23.99 ± 0.4 kPa; vapor or sublimation pressure ([2]; 390 K): 28.63 ± 0.41 kPa; vapor or sublimation pressure ([2]; 395 K): 34.02 ± 0.43 kPa; vapor or sublimation pressure ([2]; 400 K): 40.24 ± 0.45 kPa; vapor or sublimation pressure ([2]; 405 K): 47.39 ± 0.47 kPa; vapor or sublimation pressure ([2]; 410 K): 55.59 ± 0.5 kPa; vapor or sublimation pressure ([2]; 415 K): 64.93 ± 0.53 kPa; vapor or sublimation pressure ([2]; 420 K): 75.56 ± 0.56 kPa; vapor or sublimation pressure ([2]; 425 K): 87.6 ± 0.6 kPa; vapor or sublimation pressure ([2]; 430 K): 101.19 ± 0.64 kPa; vapor or sublimation pressure ([2]; 430.21 K): 101.33 ± 0.64 kPa; refractive index [3]: 1.4105 ± 0.0007

Question: Which results are given for CCCCOC(=O)[C@H](C)O [butyl L-lactate] + CCCCO?
Answer: mass density ([1]; x2 = 0): 982.178 ± 0.21 kg/m3; mass density ([1]; x2 = 0.0989): 971.809 ± 0.23 kg/m3; mass density ([1]; x2 = 0.1806): 962.459 ± 0.25 kg/m3; mass density ([1]; x2 = 0.2599): 952.704 ± 0.27 kg/m3; mass density ([1]; x2 = 0.3973): 933.863 ± 0.31 kg/m3; mass density ([1]; x2 = 0.5154): 915.521 ± 0.35 kg/m3; mass density ([1]; x2 = 0.5669): 906.818 ± 0.36 kg/m3; mass density ([1]; x2 = 0.6645): 888.883 ± 0.4 kg/m3; mass density ([1]; x2 = 0.7069): 880.503 ± 0.41 kg/m3; mass density ([1]; x2 = 0.7854): 863.836 ± 0.44 kg/m3; mass density ([1]; x2 = 0.8546): 847.901 ± 0.47 kg/m3; mass density ([1]; x2 = 0.9174): 832.199 ± 0.5 kg/m3; mass density ([1]; x2 = 0.9728): 817.297 ± 0.53 kg/m3

Question: Which results are given for CC(C)O [propan-2-ol]?
Answer: mass density [2]: 785.428 ± 0.6 kg/m3; vapor or sublimation pressure ([2]; 355.36 K): 101.33 ± 0.34 kPa; refractive index [3]: 1.3774 ± 0.0007

Question: With CCO [ethanol] + CCOC(=O)[C@H](C)O as the compound, how does the mass density ([1]; x1 = 1) read?
Answer: 789.261 ± 0.59 kg/m3

Question: For CCOC(=O)[C@H](C)O [(S)-(-)-ethyl lactate] + CCO, which mass density ([1]; x2 = 0) is on record?
Answer: 1032.94 ± 0.24 kg/m3

Question: What about the mass density ([1]; x2 = 0.1242) of the same compound?
Answer: 1018.42 ± 0.21 kg/m3

Question: What about the mass density ([1]; x2 = 0.2256) of the same compound?
Answer: 1004.73 ± 0.19 kg/m3

Question: And the mass density ([1]; x2 = 0.312)?
Answer: 991.37 ± 0.2 kg/m3

Question: And the mass density ([1]; x2 = 0.3921)?
Answer: 977.447 ± 0.23 kg/m3

Question: And the mass density ([1]; x2 = 0.5236)?
Answer: 950.894 ± 0.29 kg/m3

Question: What about the mass density ([1]; x2 = 0.5735) of the same compound?
Answer: 939.295 ± 0.31 kg/m3

Question: What about the mass density ([1]; x2 = 0.6735) of the same compound?
Answer: 913.364 ± 0.35 kg/m3

Question: What about the mass density ([1]; x2 = 0.7574) of the same compound?
Answer: 887.971 ± 0.4 kg/m3

Question: And the mass density ([1]; x2 = 0.7941)?
Answer: 875.598 ± 0.42 kg/m3

Question: What about the mass density ([1]; x2 = 0.8267) of the same compound?
Answer: 863.971 ± 0.44 kg/m3

Question: What about the mass density ([1]; x2 = 0.8559) of the same compound?
Answer: 852.975 ± 0.47 kg/m3

Question: What about the mass density ([1]; x2 = 0.9578) of the same compound?
Answer: 809.773 ± 0.55 kg/m3

Question: Which results are given for CCO [ethanol]?
Answer: mass density [2]: 789.261 ± 0.59 kg/m3; vapor or sublimation pressure ([2]; 351.44 K): 101.33 ± 0.34 kPa; refractive index [3]: 1.3614 ± 0.0007

Question: For CCCCO [butan-1-ol], which mass density [2] is on record?
Answer: 809.572 ± 0.55 kg/m3

Question: What about the “vapor or sublimation pressure” value ([2]; 390.88 K) of the same compound?
Answer: 101.33 ± 0.34 kPa

Question: What about the refractive index [3] of the same compound?
Answer: 1.3993 ± 0.0007

Question: With CCCCO [butan-1-ol] + CCCCOC(=O)[C@H](C)O as the compound, how does the mass density ([1]; x1 = 1) read?
Answer: 809.572 ± 0.55 kg/m3

Question: Which mass density [2] does the source give for CCCCOC(=O)[C@H](C)O [butyl L-lactate] here?
Answer: 982.178 ± 0.21 kg/m3

Question: And the “vapor or sublimation pressure” value ([2]; 390 K)?
Answer: 10.62 ± 0.35 kPa

Question: What about the “vapor or sublimation pressure” value ([2]; 395 K) of the same compound?
Answer: 13.01 ± 0.36 kPa

Question: And the “vapor or sublimation pressure” value ([2]; 400 K)?
Answer: 15.8 ± 0.37 kPa

Question: What about the “vapor or sublimation pressure” value ([2]; 405 K) of the same compound?
Answer: 19.04 ± 0.38 kPa

Question: And the “vapor or sublimation pressure” value ([2]; 410 K)?
Answer: 22.79 ± 0.39 kPa

Question: What about the “vapor or sublimation pressure” value ([2]; 415 K) of the same compound?
Answer: 27.09 ± 0.41 kPa

Question: And the “vapor or sublimation pressure” value ([2]; 420 K)?
Answer: 32 ± 0.42 kPa

Question: What about the “vapor or sublimation pressure” value ([2]; 425 K) of the same compound?
Answer: 37.58 ± 0.44 kPa

Question: What about the “vapor or sublimation pressure” value ([2]; 430 K) of the same compound?
Answer: 43.87 ± 0.46 kPa

Question: What about the “vapor or sublimation pressure” value ([2]; 435 K) of the same compound?
Answer: 50.94 ± 0.48 kPa

Question: And the “vapor or sublimation pressure” value ([2]; 440 K)?
Answer: 58.84 ± 0.51 kPa

Question: And the “vapor or sublimation pressure” value ([2]; 445 K)?
Answer: 67.65 ± 0.54 kPa

Question: What about the “vapor or sublimation pressure” value ([2]; 450 K) of the same compound?
Answer: 77.41 ± 0.57 kPa

Question: And the “vapor or sublimation pressure” value ([2]; 455 K)?
Answer: 88.19 ± 0.6 kPa

Question: What about the “vapor or sublimation pressure” value ([2]; 460 K) of the same compound?
Answer: 100.05 ± 0.64 kPa

Question: What about the “vapor or sublimation pressure” value ([2]; 460.75 K) of the same compound?
Answer: 101.33 ± 0.65 kPa

Question: And the refractive index [3]?
Answer: 1.4218 ± 0.0007

Question: Which mass density ([1]; x1 = 1) does the source give for CC(C)O [propan-2-ol] + CC(C)OC(=O)[C@H](C)O here?
Answer: 785.428 ± 0.6 kg/m3

Question: For CCOC(=O)[C@H](C)O [(S)-(-)-ethyl lactate], which mass density [2] is on record?
Answer: 1032.94 ± 0.24 kg/m3

Question: And the “vapor or sublimation pressure” value ([2]; 427.65 K)?
Answer: 101.33 ± 0.34 kPa

Question: And the refractive index [3]?
Answer: 1.4129 ± 0.0007
